# Measured values published in patent publication US20110183336A1, “Method to Predict Responsiveness of Breast Cancer to Polyamine-Type Chemotherapy” (THE REGENTS OF THE UNIVERSITY OF CALIFORNIA, priority 2007, published 2011).
# Columns and labels:
# Experiment in all cases: Cell growth inhibition assay (Cell Titer Glo)
# Type in all cases: cell-based, human
# SUM229PE = conditions: Basal B, 72 h
# Experimental: (§1) Cell culture: Breast cell lines were obtained from the ATCC and from collections developed in the laboratories of Drs. Steve Ethier and Adi Gazdar.
# (§2) Cell growth inhibition assay and data analysis: Cells were plated at proper density in 96-well plates such that they would remain in log growth at the end of assay time. The cells were allowed to attach overnight before being exposed to CGC-11047 for 72 h. Drugs were dissolved in water as 100 mM stock. For the dose response study, a set of 9 doses from 5×10^−3 to 1.3×10^−8 M (final concentration) in 1:5 serial dilution were added in triplicate wells. The final DMSO concentration in the treated well was 0.3% or less. The cell growth was determined using Cell Titer Glo (CTG) assay (CellTiter-Glo Luminescent Cell Viability Assay, Promega, Madison, Wis.), with slight modification form manufacturer's protocol, at day 0 (time when drug was added) and at day 3 of drug exposure. Briefly, CTG reagent was diluted with PBS (1:1, volume: volume) and the culture media was removed from the 96-well plate prior to adding 50 μl per well of the diluted CTG reagent. Luminescence from the assay was recorded using BIO-TEK FLx800.
# (§3) Data calculations were made according to the method described by the NCI/NIH DTP Human Tumor Cell Line Screen Process (http://dtp.nci.nih.gov/branches/btb/ivclsp.html) and as described previously (Monks, A et al., JNCI 83:757-766, 1991). The percent growth curve is calculated as [(T−T0)/(C−T0)]×100, where T0 is the cell count at day 0, C is the vehicle control (e.g. 0.3% DMSO without drug) cell count at day 3, and T is the cell count at the test concentration. The GI50 and TGI value are determined as the drug concentration that results in a 50% and 0% growth at 72 h drug exposure. LC50 is calculated as [(T−T0)/T0]×100=−50, when T<T0.
# 184B5 = conditions: 184B5, HMEC, 72 h
# Experimental: as §1, §2, §3
# AU565 = conditions: AU565, Luminal, 72 h
# Experimental: as §1, §2, §3
# HCC1143 = conditions: HCC1143, Basal A, 72 h
# Experimental: as §1, §2, §3
# MCF10A = conditions: N, Basal B, 72 h
# Experimental: as §1, §2, §3
# BT483 = conditions: BT483, Luminal, 72 h
# Experimental: as §1, §2, §3
# MDAMB157 = conditions: MDAMB157, Basal B, 72 h
# Experimental: as §1, §2, §3
# 184A1 = conditions: 184A1, HMEC, 72 h
# Experimental: as §1, §2, §3
# HCC1419 = conditions: HCC1419, Luminal, 72 h
# Experimental: as §1, §2, §3
# MCF12A = conditions: N, Basal B, 72 h
# Experimental: as §1, §2, §3
# MDAMB436 = conditions: MDAMB436, Basal B, 72 h
# Experimental: as §1, §2, §3
# SUM52PE = conditions: Luminal, 72 h
# Experimental: as §1, §2, §3
# 600MPE = conditions: Luminal, 72 h
# Experimental: as §1, §2, §3
# HCC1806 = conditions: HCC1806, Basal A, 72 h
# Experimental: as §1, §2, §3
# MDAMB453 = conditions: MDAMB453, Luminal, 72 h
# Experimental: as §1, §2, §3
# HCC1500 = conditions: HCC1500, Basal B, 72 h
# Experimental: as §1, §2, §3
# HCC2185 = conditions: HCC2185, Luminal, 72 h
# Experimental: as §1, §2, §3
# HCC1954 = conditions: HCC1954, Basal A, 72 h
# Experimental: as §1, §2, §3
# MCF7 = conditions: MCF7, Luminal, 72 h
# Experimental: as §1, §2, §3
# SUM159PT = conditions: Basal B, 72 h
# Experimental: as §1, §2, §3
# S1 = conditions: S1, HMEC, 72 h
# Experimental: as §1, §2, §3
# MDAMB231 = conditions: MDAMB231, Basal B, 72 h
# Experimental: as §1, §2, §3
# ZR7530 = conditions: ZR7530, Luminal, 72 h
# Experimental: as §1, §2, §3
# MDAMB468 = conditions: MDAMB468, Basal A, 72 h
# Experimental: as §1, §2, §3
smiles,measurement,setting,value
CCNCCCNC/C=C\CNCCCNCC [CGC-11047],TGI,SUM229PE,1.1 mM
same,GI50,SUM229PE; Homo sapiens,90 µM
same,TGI,184B5,400 µM
same,GI50,184B5; Homo sapiens,300 µM
same,TGI,AU565,>30 µM
same,GI50,AU565; Homo sapiens,40 µM
same,TGI,HCC1143,320 µM
same,GI50,HCC1143; Homo sapiens,2000 nM
same,GI50,"MCF10A; Homo sapiens, MCF-10A",200 µM
same,TGI,MCF10A,3.3 mM
same,TGI,BT483,1.3 mM
same,GI50,"BT483; Homo sapiens, BT-483",900 µM
same,GI50,"MDAMB157; Homo sapiens, MDA-MB-157",200 µM
same,TGI,MDAMB157,1 mM
same,TGI,184A1,220 µM
same,GI50,184A1; Homo sapiens,2000 nM
same,TGI,HCC1419,31 µM
same,GI50,HCC1419; Homo sapiens,7 µM
same,GI50,"MCF12A; Homo sapiens, MCF-12A",100 µM
same,TGI,MCF12A,>100 µM
same,GI50,"MDAMB436; Homo sapiens, MDA-MB-436",1 mM
same,TGI,MDAMB436,3 mM
same,GI50,SUM52PE; Homo sapiens,10 µM
same,TGI,SUM52PE,300 µM
same,GI50,600MPE; Homo sapiens,2000 nM
same,TGI,600MPE,2 mM
same,TGI,HCC1806,330 µM
same,GI50,HCC1806; Homo sapiens,600 nM
same,GI50,"MDAMB453; Homo sapiens, MDA-MB-453",500 µM
same,TGI,MDAMB453,>500 µM
same,TGI,HCC1500,600 µM
same,GI50,HCC1500; Homo sapiens,20 µM
same,TGI,HCC2185,500 µM
same,GI50,HCC2185; Homo sapiens,90 µM
same,TGI,HCC1954,8 µM
same,GI50,HCC1954; Homo sapiens,1000 nM
same,GI50,MCF7; Homo sapiens,90 µM
same,TGI,MCF7,1.2 mM
same,TGI,SUM159PT,3 mM
same,GI50,"SUM159PT; Homo sapiens, SUM-159-PT",200 µM
same,GI50,S1; Homo sapiens,800 nM
same,TGI,S1,3 mM
same,GI50,"MDAMB231; Homo sapiens, MDA-MB-231",2 mM
same,TGI,MDAMB231,>5 mM
same,GI50,"ZR7530; Homo sapiens, ZR-75-30",800 nM
same,TGI,ZR7530,1 mM
same,GI50,"MDAMB468; Homo sapiens, MDA-MB-468",500 nM
same,TGI,MDAMB468,2 mM
